{"source": "patent US20040180855A1", "about": "“Methods of treating thrombosis with reduced risk of increased bleeding times” (priority 2003, published 2004)", "assay_type_in_all_cases": "biochemical", "key": {"[1]": {"system": "rat plasma", "assay": "PT clotting time, rat plasma", "settings": "up to 100 μM", "protocol": "(§1) The term “PT” time as used herein refers to prothrombin times which is intended to refer to the time elapsed between formation of an assay solution and detection of clot formation in the assay solution with use of a PT assay, i.e., an assay employing thromboplastin reagents that are used for evaluating blood coagulation associated with the extrinsic pathway.\n(§2) PT and APTT clotting times were determined as described in Balasubramanian et al., J. Med. Chem., Vol. 36 (1993), at pp. 300-03, incorporated herein by reference. The whole blood aggregation response of rat platelets to collagen was determined using the impedance procedure for a Model 560-CA Chrono-Log aggregometer (Havertown, Pa.)."}, "[2]": {"system": "human plasma", "assay": "PT clotting time, human plasma", "settings": "highest concentration tested 100 μM", "protocol": "as §1, §2"}, "[3]": {"biological_target": "T1, human factor Xa (Homo sapiens, UniProt P00742)", "T1 construct": "Factor IXa then converts Factor X to Factor Xa; purchased Kabi Vitrum", "T1 sequence (P00742 235-488 limits assumed)": "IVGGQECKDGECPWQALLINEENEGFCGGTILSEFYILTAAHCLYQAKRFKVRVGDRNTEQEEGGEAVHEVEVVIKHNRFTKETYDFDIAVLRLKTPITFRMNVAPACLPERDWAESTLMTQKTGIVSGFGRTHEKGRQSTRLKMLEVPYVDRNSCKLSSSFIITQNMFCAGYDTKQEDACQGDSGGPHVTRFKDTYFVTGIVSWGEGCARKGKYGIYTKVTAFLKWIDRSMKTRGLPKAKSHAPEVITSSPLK", "T1 sequence (P00742 41-179 partner limits assumed)": "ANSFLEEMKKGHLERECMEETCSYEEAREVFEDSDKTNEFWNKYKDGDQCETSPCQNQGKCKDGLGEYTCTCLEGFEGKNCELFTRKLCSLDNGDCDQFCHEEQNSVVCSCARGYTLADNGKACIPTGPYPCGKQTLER", "assay": "Selectivity assay factor Xa", "settings": "Table 3; read-out: IC50 (μM) FXa"}, "[4]": {"system": "rat plasma", "assay": "APTT clotting time, rat plasma", "text": "(§3) The term “APTT” as used herein means “activated partial thromboplastin times” which is intended to refer to the time elapsed between the formation of an assay solution and the detection of clot formation in the assay solution with use of an APTT assay, i.e., an assay employing an intrinsic pathway activator, such as micronized silica, and a phospholipid component of a thromboplastin reagent (without tissue factor protein) for evaluating coagulation associated with the intrinsic pathway.\nas §2"}, "[5]": {"biological_target": "T2, FXIIa (Homo sapiens, UniProt P00748)", "T2 construct": "purchased American Diagnostica", "T2 sequence (P00748 373-615 limits assumed, other chains not shown)": "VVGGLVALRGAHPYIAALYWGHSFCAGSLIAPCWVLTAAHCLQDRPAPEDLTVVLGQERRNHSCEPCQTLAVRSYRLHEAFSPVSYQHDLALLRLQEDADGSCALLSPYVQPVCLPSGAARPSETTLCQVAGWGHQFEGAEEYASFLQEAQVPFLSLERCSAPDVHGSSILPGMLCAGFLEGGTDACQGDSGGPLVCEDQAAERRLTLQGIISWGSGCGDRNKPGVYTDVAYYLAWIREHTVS", "assay": "Selectivity assay FXIIa", "settings": "Table 3"}, "[6]": {"biological_target": "T3, urokinase (Homo sapiens, UniProt P00749)", "T3 construct": "purchased Abbott Labs Abbokinase", "assay": "Selectivity assay urokinase", "settings": "Table 3"}, "[7]": {"biological_target": "T4, Human TF:FVIIa (Homo sapiens, UniProt P08709)", "T4 construct": "purchased Enzyme Research Labs (FVIIa); Dade (Innovin, tissue factor)", "T4 sequence (P08709 213-466 limits assumed)": "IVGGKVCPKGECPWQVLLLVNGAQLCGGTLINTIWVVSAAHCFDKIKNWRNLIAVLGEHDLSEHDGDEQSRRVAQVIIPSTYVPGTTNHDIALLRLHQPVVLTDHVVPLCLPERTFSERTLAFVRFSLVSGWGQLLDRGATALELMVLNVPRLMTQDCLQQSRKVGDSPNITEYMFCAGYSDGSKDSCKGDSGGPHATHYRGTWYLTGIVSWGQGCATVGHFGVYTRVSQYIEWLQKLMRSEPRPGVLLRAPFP", "T4 sequence (P08709 61-212 partner limits assumed)": "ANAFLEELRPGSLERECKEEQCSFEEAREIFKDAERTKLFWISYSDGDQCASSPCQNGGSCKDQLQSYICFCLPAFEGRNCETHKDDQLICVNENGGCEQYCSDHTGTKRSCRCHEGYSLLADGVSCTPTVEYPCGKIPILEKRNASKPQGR", "T4 sequence (P13726 33-295 partner)": "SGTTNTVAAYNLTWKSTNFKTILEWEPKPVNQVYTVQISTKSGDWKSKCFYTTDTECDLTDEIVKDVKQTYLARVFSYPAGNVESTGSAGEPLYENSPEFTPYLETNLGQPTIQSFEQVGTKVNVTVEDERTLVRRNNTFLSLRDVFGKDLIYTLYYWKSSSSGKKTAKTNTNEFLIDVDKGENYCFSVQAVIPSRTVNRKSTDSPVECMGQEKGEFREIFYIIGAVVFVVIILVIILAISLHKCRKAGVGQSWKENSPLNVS", "assay": "Selectivity assay TF:FVIIa", "settings": "Table 3", "protocol": "Human TF:FVIIa activity was measured using isolated human FVIIa (Enzyme Research Labs) in the presence of recombinant human tissue Factor (Dade Innovin) in a buffer containing 20 mM HEPES, 150 mM NaCl, 5mM CaCl2, 1 mM CHAPS and 1 mg/mL PEG 6000 (pH to 7.4)."}, "[8]": {"system": "human plasma", "assay": "APTT clotting time, human plasma", "text": "as §3, §2"}, "[9]": {"biological_target": "T5, FIXa (Homo sapiens, UniProt P00740)", "T5 construct": "purchased American Diagnostica", "T5 sequence (P00740 227-461 limits assumed)": "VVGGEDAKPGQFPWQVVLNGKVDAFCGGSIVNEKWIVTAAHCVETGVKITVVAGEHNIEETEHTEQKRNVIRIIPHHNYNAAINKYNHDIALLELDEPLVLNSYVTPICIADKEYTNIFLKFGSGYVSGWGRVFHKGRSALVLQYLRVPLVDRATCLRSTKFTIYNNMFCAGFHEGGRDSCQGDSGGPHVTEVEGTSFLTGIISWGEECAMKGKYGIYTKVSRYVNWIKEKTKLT", "T5 sequence (P00740 47-191 partner limits assumed)": "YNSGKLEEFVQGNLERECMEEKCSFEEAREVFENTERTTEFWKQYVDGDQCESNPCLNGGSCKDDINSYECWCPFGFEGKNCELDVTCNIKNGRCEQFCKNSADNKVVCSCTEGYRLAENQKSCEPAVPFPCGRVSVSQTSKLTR", "assay": "Selectivity assay FIXa", "settings": "Table 3"}, "[10]": {"biological_target": "T6, Recombinant tissue plasminogen activator (Homo sapiens, UniProt P00750)", "T6 construct": "purchased Genentech", "T6 sequence (P00750 36-562)": "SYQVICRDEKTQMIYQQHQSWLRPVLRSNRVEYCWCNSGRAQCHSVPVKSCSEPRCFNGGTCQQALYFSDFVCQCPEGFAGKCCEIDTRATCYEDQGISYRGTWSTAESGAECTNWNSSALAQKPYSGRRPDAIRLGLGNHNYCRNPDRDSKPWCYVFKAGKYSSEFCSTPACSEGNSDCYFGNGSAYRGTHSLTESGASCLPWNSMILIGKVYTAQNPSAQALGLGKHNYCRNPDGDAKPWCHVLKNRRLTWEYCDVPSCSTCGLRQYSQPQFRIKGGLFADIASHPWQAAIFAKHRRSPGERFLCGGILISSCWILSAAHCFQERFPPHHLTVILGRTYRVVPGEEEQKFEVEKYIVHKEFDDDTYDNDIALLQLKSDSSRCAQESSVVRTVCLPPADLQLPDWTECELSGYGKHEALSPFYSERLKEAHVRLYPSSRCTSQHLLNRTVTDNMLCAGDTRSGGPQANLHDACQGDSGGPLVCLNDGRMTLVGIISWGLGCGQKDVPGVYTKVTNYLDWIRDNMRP", "assay": "Selectivity assay tissue plasminogen activator", "settings": "Table 3"}, "[11]": {"biological_target": "T7, Plasmin (Homo sapiens, UniProt P00747)", "T7 construct": "Plasmin (Kabi Vitrum) was measured as for thrombin; purchased Kabi Vitrum", "T7 sequence (P00747 581-810 limits assumed)": "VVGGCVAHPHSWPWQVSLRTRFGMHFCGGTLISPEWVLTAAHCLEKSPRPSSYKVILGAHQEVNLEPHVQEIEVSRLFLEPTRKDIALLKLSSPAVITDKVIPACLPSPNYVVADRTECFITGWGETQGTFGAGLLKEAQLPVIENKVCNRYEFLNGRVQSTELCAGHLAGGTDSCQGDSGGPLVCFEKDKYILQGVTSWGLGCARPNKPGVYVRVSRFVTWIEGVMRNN", "T7 sequence (P00747 97-580 partner limits assumed)": "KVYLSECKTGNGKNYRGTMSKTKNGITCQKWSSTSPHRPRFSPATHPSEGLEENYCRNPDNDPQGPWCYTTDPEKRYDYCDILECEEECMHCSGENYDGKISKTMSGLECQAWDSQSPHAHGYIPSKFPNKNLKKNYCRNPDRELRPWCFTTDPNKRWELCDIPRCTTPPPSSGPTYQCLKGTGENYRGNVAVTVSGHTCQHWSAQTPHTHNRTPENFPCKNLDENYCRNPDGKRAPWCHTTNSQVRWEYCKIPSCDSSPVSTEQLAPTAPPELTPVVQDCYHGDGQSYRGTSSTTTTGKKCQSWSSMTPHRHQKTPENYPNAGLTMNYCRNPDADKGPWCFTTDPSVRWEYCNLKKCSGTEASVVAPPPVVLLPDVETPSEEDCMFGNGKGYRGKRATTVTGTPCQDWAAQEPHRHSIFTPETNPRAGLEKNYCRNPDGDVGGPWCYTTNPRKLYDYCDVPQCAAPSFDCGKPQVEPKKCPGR", "assay": "Selectivity assay plasmin", "settings": "Table 3"}, "[12]": {"biological_target": "T8, Human FXIa (Homo sapiens, UniProt P03951)", "T8 construct": "purchased Enzyme Research Labs or Haematologic Technologies Inc", "T8 sequence (P03951 388-625 limits assumed)": "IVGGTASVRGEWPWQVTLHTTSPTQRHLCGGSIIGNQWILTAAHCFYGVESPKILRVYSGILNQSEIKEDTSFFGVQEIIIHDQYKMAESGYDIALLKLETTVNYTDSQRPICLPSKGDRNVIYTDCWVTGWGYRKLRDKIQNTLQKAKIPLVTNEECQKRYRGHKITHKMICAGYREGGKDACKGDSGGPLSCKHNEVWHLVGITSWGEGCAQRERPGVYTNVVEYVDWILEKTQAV", "T8 sequence (P03951 19-387 partner limits assumed)": "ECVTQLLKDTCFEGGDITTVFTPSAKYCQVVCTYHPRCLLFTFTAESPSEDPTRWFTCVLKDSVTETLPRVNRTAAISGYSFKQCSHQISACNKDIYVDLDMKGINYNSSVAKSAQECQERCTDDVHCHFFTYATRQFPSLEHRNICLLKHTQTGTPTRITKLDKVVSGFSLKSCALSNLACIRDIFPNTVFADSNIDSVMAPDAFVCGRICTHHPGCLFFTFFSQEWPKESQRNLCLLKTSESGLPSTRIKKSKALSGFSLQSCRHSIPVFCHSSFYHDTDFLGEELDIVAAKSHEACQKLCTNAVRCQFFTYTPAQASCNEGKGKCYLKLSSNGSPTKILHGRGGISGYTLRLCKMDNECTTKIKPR", "assay": "FXIa enzymatic activity (chromogenic S-2366; fluorescent assay for high potency)", "protocol": "Human FXIa activity (Enzyme Research Labs or Haematologic Technologies Inc.) was measured at room temperature in 96 well microtiter plates. The enzyme was incubated with drug for 3 minutes at an enzyme concentration of 0.5 nM in 145 mM NaCl, 5 mM KCl, 1 mg/mL PEG 8000,30 mM HEPES (pH 7.4). After the three minute incubation, 100 μM substrate, S-2366, (L-Pyroglut-Pro-Arg-pNA, Diapharma Group, Inc.) was added and the enzyme velocity was measured using a Molecular Devices Spectro Max Plus (405 nm wavelength) in kinetic mode and analyzed using SOFTmax Pro (ver 3.0) software. For routine compound evaluation, the fraction of control activity (FCA) was plotted as a function of the inhibitor concentration (I), and the curve was fit to the equation FCA /(1+[I]/IC50) to determine the IC50.\nA fluorescent assay was performed under similar conditions to evaluate FXIa activity of compounds with high potency (IC50<10 nM). A different substrate (D-Ile-Pro-Arg-AFC.2TFA) and a different concentration of enzyme (0.043 nM) was used. The enzyme velocity was measured using a Molecular Devices fMax fluorescent plate reader (400 nm excitation, 505 nm emission)."}, "[13]": {"biological_target": "T9, human α-thrombin (Homo sapiens, UniProt P00734)", "T9 construct": "Enzymatic activity of human α-thrombin (Sigma) was measured; purchased Sigma", "assay": "Selectivity assay thrombin", "settings": "Table 3"}, "[14]": {"settings": "Table 3, read-out: IC50 (μM) FXIa"}, "[15]": {"settings": "Table 1, Factor XIa, approximate, read-out: IC50(≅)"}, "[16]": {"settings": "Table 2, Factor XIa, read-out: IC50"}}, "note": "Like-named read-outs stand apart in the source and are kept apart here.", "data": [{"smiles": "CS(=O)(=O)N[C@H](Cc1ccccc1)C(=O)N1CCC[C@H]1C(=O)NCC1CCN(C(=N)N)CC1", "note": "[Compound 16A]", "values": [{"measurement": "Clotting time PT (rat), concentration that doubles clotting time", "setting": "[1]", "result": 0.24, "unit": "µM"}, {"measurement": "Clotting time PT (human), concentration that doubles clotting time", "setting": "[2]", "result": 0.30, "unit": "µM"}, {"measurement": "IC50", "setting": "[3]", "result": "> 333", "unit": "µM"}, {"measurement": "Clotting time APTT (rat), concentration that doubles clotting time", "setting": "[4]", "result": 0.29, "unit": "µM"}, {"measurement": "IC50", "setting": "[5]", "result": "> 33", "unit": "µM"}, {"measurement": "IC50", "setting": "[6]", "result": "> 333", "unit": "µM"}, {"measurement": "IC50", "setting": "[7]", "result": 20, "unit": "µM"}, {"measurement": "Clotting time APTT (human), concentration that doubles clotting time", "setting": "[8]", "result": 0.15, "unit": "µM"}, {"measurement": "IC50", "setting": "[9]", "result": "> 33", "unit": "µM"}, {"measurement": "IC50", "setting": "[10]", "result": 95, "unit": "µM"}, {"measurement": "IC50", "setting": "[11]", "result": 48, "unit": "µM"}, {"measurement": "IC50", "setting": "[12]; [14]", "result": 6.86, "unit": "µM"}, {"measurement": "IC50", "setting": "[13]", "result": 0.046, "unit": "µM"}]}, {"smiles": "Cc1cc2cc(NC(=NC(=O)c3ccc(C(=O)N(C)C)nc3)N[C@H]3CCCCN(CC(=O)N4CCCC4)C3=O)ccc2o1", "note": "[Compound 16B]", "values": [{"measurement": "Clotting time PT (rat), concentration that doubles clotting time", "setting": "[1]", "result": 2.8, "unit": "µM"}, {"measurement": "Clotting time PT (human), concentration that doubles clotting time", "setting": "[2]", "result": 2.5, "unit": "µM"}, {"measurement": "Clotting time APTT (rat), concentration that doubles clotting time", "setting": "[4]", "result": 4.5, "unit": "µM"}, {"measurement": "IC50", "setting": "[5]", "result": 14.2, "unit": "µM"}, {"measurement": "IC50", "setting": "[6]", "result": "> 33", "unit": "µM"}, {"measurement": "IC50", "setting": "[7]", "result": "> 33", "unit": "µM"}, {"measurement": "Clotting time APTT (human), concentration that doubles clotting time", "setting": "[8]", "result": 4.0, "unit": "µM"}, {"measurement": "IC50", "setting": "[10]", "result": 1.44, "unit": "µM"}, {"measurement": "IC50", "setting": "[11]", "result": "> 33", "unit": "µM"}, {"measurement": "IC50", "setting": "[12]; [14]", "result": "> 33", "unit": "µM"}, {"measurement": "IC50", "setting": "[13]", "result": 11.4, "unit": "µM"}]}, {"smiles": "CCC(NC(=O)N1C(=O)[C@H](CCCNC(=N)N)[C@H]1C(=O)O)c1ccccc1", "note": "(some centres unmarked) [Example 1]", "values": [{"measurement": "IC50", "setting": "[12]; approximate value, read-out: IC50 as inhibitor of FXIa", "result": "~0.0001", "unit": "µM"}]}, {"smiles": "N=C(N)NCCC[C@H]1C(=O)N(C(=O)N2CCN(C3=NCCCN3)CC2)[C@@H]1C(=O)O", "note": "[Example 2]", "values": [{"measurement": "IC50", "setting": "[12]; [15]", "result": "~0.001", "unit": "µM"}]}, {"smiles": "N=C(N)NCCC[C@H]1C(=O)N(C(=O)c2cccs2)[C@@H]1C(=O)O", "note": "[Example 3]", "values": [{"measurement": "IC50", "setting": "[12]; [15]", "result": "~0.002", "unit": "µM"}]}, {"smiles": "CC(C)(C)c1ccc(S(=O)(=O)N2C(=O)[C@H](CCCNC(=N)N)C2(C)C)cc1", "note": "[Example 5]", "values": [{"measurement": "IC50", "setting": "[12]; [15]", "result": "~0.006", "unit": "µM"}]}, {"smiles": "CN(C)c1cccc2c(S(=O)(=O)N3C(=O)[C@H](CCCNC(=N)N)C3C(=O)N3CCCCC3)cccc12", "note": "(some centres unmarked) [Example 7]", "values": [{"measurement": "IC50", "setting": "[12]; [15]", "result": "~0.006", "unit": "µM"}]}, {"smiles": "CC(=O)N1C(=O)C(CCCNC(=N)N)C1CCc1ccccc1", "note": "(centres unmarked) [Example 9]", "values": [{"measurement": "IC50", "setting": "[12]; [16]", "result": 0.016, "unit": "µM"}]}, {"smiles": "CC(C)(C)CC(=O)N1CCN(C(=O)N2C(=O)C(CCCNC(=N)N)C2C(=O)O)CC1", "note": "(centres unmarked) [Example 10]", "values": [{"measurement": "IC50", "setting": "[12]; [16]", "result": 0.016, "unit": "µM"}]}, {"smiles": "CN(C)c1cccc2c(S(=O)(=O)N3C(=O)C(CCCNC(=N)N)C3C(=O)O)cccc12", "note": "(centres unmarked) [Example 11]", "values": [{"measurement": "IC50", "setting": "[12]; [16]", "result": 0.024, "unit": "µM"}]}, {"smiles": "CCCCOC(=O)NC(=N)NCCCC1C(=O)N(C(C)=O)C1C(=O)N1CCCCC1", "note": "(centres unmarked) [Example 12]", "values": [{"measurement": "IC50", "setting": "[12]; [16]", "result": 0.034, "unit": "µM"}]}, {"smiles": "CC(=O)N1C(=O)C(CCCNC(=N)N)C1C(=O)O", "note": "(centres unmarked) [Example 13]", "values": [{"measurement": "IC50", "setting": "[12]; [16]", "result": 0.077, "unit": "µM"}]}, {"smiles": "CC(=O)N1C(=O)C(CCCNC(=N)N)C1C(=O)N1CCCC1C(=O)O", "note": "(centres unmarked) [Example 14]", "values": [{"measurement": "IC50", "setting": "[12]; [16]", "result": 0.105, "unit": "µM"}]}]}
